Like-named read-outs stand apart in the source and are kept apart here.
What was measured:
[1] = system: COLO205 colon adenocarcinoma cells (B-Raf V600E mutation); experiment: COLO205 cell growth inhibition assay (ATPlite); type: cell-based, human
Protocol: Compounds are assessed in a variety of cell based assays. For example human cell lines with B-RafV600E mutation (A375 melanoma, SKMEL3 melanoma, and COLO205 colon adenocarcinoma), as well as tumorigenic cell lines with wild-type B-RAF (SW620 colon adenocarcinoma) or with Ras mutations (SKMEL2 melanoma and IPC298 melanoma).
On day 1, cells are counted, then centrifuged in a conical tube for 5 minutes at 1000 rpm.
On day 2, compound at a maximum concentration of 5 mM is serially diluted 1:3 (e.g. 10 μL with 30 μL dimethyl sulfoxide) for a total of 8 point titration with DMSO as a control. A 1 μL aliquot of each dilution point and control is added to 249 μL growth media and 50 μL is added to a well containing cells, providing 10 μM compound at the maximum concentration point. The cells are incubated for 3 days at 37° C. in 5% CO2.
ATPlite is added 25 μL to each well, shake for 2 minutes, and the cells are incubated at room temperature for 10 minutes, then luminescence is read on Safire reader. The measured luminescence correlates directly with cell number, such that the reading as a function of compound concentration is used to determine the IC50 value.

[2] = system: IPC-298 cells, phosphorylated ERK; experiment: IPC-298_P-ERK cell activation assay (phosphorylated ERK, AlphaScreen); type: cell-based, human; conditions: P-ERK activation, one hour treatment
Protocol: B9 is a squamous cell carcinoma cell line expressing activated HRAS that was isolated from a DMBA/TPA-induced mouse model of skin carcinogenesis (Stoler, et al. The Journal of Cell Biology, 1993, 122(5), 1103-17). IPC-298 is a human melanoma cell line that expresses activated NRAS (Aubert, et al. International Journal of Cancer, 1993, 54(5), 784-92). To determine whether compounds induce phosphorylated ERK and MEK, cells are plated in a 96-well dish and treated with an 8-point titration of compound for one hour at 37° C. The media is then removed and the cells are incubated with lysis buffer containing protease and phosphatase inhibitors. Phosphorylated ERK and MEK in the resulting lysates is detected using AlphaScreen™ technology. To detect phosphorylated ERK, cell lysates are incubated with streptavidin-coated donor beads, anti-mouse IgG acceptor beads, a biotinylated anti-ERK1/2 rabbit antibody, and a mouse antibody that recognizes ERK1/2 only when it is phosphorylated on Thr202 and Tyr204. […] When ERK is phosphorylated, both antibodies can bind the same protein, bringing the donor and acceptor beads into close proximity, producing a signal that can be measured at 580 nm. MEK phosphorylation is detected using a similar approach, only with antibodies directed against total MEK1/2 and MEK1/2 that is phosphorylated at Ser217 and Ser221.

[3] = system: A375 melanoma cells (B-Raf V600E mutation); experiment: A375 (A375_P-ERK) cell activity / cell growth inhibition assay; type: cell-based, human; conditions: A375 cells (text: A375_P-ERK)
[4] = molecular target: B-Raf V600E (Homo sapiens (Human), UniProt P15056, V600E); experiment: B-Raf V600E kinase activity biochemical assay (AlphaScreen, biotin-MEK1 substrate); conditions: 100 μM ATP
Chain of B-Raf V600E (P15056 whole entry V600E): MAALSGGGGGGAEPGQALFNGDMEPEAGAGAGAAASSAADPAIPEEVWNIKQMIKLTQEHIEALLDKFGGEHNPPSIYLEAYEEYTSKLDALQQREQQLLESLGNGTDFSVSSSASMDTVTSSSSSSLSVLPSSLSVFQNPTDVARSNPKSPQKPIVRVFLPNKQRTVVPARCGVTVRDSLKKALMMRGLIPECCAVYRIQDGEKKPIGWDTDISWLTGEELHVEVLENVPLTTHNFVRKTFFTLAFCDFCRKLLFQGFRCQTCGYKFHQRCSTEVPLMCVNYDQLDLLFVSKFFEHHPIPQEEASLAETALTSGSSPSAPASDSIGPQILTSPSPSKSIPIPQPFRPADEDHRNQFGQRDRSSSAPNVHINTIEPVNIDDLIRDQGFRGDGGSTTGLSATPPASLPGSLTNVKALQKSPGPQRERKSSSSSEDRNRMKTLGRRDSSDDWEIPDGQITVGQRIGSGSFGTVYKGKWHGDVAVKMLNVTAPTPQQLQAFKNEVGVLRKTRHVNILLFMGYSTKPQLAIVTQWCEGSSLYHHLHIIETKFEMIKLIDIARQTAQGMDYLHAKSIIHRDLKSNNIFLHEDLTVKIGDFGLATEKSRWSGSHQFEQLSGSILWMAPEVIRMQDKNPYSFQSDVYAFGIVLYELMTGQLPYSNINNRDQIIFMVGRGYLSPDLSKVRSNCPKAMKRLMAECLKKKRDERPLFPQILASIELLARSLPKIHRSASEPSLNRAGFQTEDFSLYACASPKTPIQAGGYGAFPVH
Protocol: Assays for biochemical and cell based activity are known in the art, for example, as described in PCT publication WO 2007/002433, the disclosure of which is hereby incorporated by reference as it relates to such assays. For example, the biochemical activity IC50 values are determined with respect to inhibition of B-Raf V600E kinase activity or p-Erk kinase activity, where inhibition of phosphorylation of a peptide substrate is measured as a function of compound concentration. Compounds to be tested are diluted in dimethyl sulfoxide to a concentration of 0.1 mM. These are serially diluted 15 μL into 30 μL of dimethyl sulfoxide seven times in 96 well plates for a total of 8 dilution points, and for each dilution point 1 μL is added to a well of an assay plate. Plates are prepared such that each well in a 384 well plate contains 1 μL of compound in 10 μL volume with 0.1 ng Raf enzyme (i.e. any of B-Raf, c-Raf-1 or B-Raf V600E, Upstate Biotechnology or preparead by methods known to one of skill in the art), 50 mM HEPES, pH 7.0, 50 mM NaCl, 2 mM MgCl2, 1 mM MnCl2, 0.01% Tween-20, 1 mM DTT, and 100 nM biotin-MEK1 as substrate. The reaction is started with addition of 10 μL of 200 μM ATP (i.e. final 100 μM ATP). […] The plates are incubated for 3 hours at room temperature and read on Envision reader (Perkin Elmer). […]

O=C(c1c(F)ccc(NS(=O)(=O)N2CCCC2)c1F)c1c[nH]c2ncc(I)cc12 [P-0024]
IC50 [1]: > 1 µM | EC50 [2]: > 10 µM | IC50 [3]: < 1 µM

CCN(C)S(=O)(=O)Nc1ccc(F)c(C(=O)c2c[nH]c3ncc(-c4ccc(Cl)cc4)cc23)c1F [P-0013]
IC50 [4]: < 0.1 µM | IC50 ([3]; Homo sapiens, A-375): < 1 µM

CCCS(=O)(=O)Nc1ccc(F)c(C(=O)c2c[nH]c3ncc(Cl)cc23)c1F
IC50 ([1]; Homo sapiens, COLO 205, compounds known in the art): < 1 µM | IC50 ([3]; Homo sapiens, A-375, compounds known in the art): < 0.8 µM

CN(C)S(=O)(=O)Nc1cccc(C(=O)c2c[nH]c3ncc(-c4ccc(C#N)cc4)cc23)c1F [P-0027]
IC50 ([1]; Homo sapiens, COLO 205): < 1 µM | IC50 ([3]; Homo sapiens, A-375): < 1 µM
